Measured values as given in article PMC11911254 (Pharmacological Reports, 2025).

What was measured:
[1] = Concentration of paracetamol and its metabolites in plasma, CSF and brain cortex by LC-MS/MS; conditions: for concentration at 30 min: Sprague Dawley, rat; for Concentration in plasma / Concentration in brain: individual values if <3 samples
Experimental: Drug injection protocol is illustrated in Fig. 1.
Male and female postnatal P4 pups and 7–8 week-old non-pregnant females were used. […] In combination therapy experiments, this dose was accompanied by one of the 7 other drugs (Table 1). For all experiments, animals were terminally anesthetized 30 min after the drug injection using inhaled isoflurane (IsoFlo 100% w/w, Abbott Laboratories), and blood, CSF, and brain samples were collected. Blood was collected directly from the right cardiac ventricle, CSF from the cisterna magna, and cortical brain samples from the frontal/parietal lobes dorsal to the lateral ventricles as described previously.
Pregnant E19 dams were anesthetized with ip urethane injection (25% w/v urethane, Sigma, 1 ml/100 g body weight) and placed on a 39 °C heating pad in the supine position. An endotracheal catheter was inserted to maintain a clear airway. Catheters were inserted into the femoral vein and artery for iv drug administration and arterial blood sampling respectively. The cannula was flushed with 0.5 ml of heparinized saline (Hospira Inc, 5,000 units/ml) after drug administration and following each arterial blood sample. Following drug administration to the dams, fetuses were exteriorized and serially collected starting at 30 min post-maternal injection. […] At collection, the viability of each fetus was assessed (presence of a heartbeat, the colour of the umbilical vessels) and blood, CSF, and brain samples were taken along with a time-matched maternal blood sample from the femoral artery. At the end of the experiment, a final maternal blood sample was taken directly from the left cardiac ventricle, and CSF and brain samples were collected.
This method has been described previously for valproate, lamotrigine, and olanzapine and was applied in the present study. Simultaneous quantification was performed for all compounds in plasma, brain, and CSF samples following the addition of respective stable isotope-labeled internal standards.
Linear response range was determined in untreated control rat plasma for each compound at 0.1, 1, 10, 50, 100, 200, 400, and 800 µg/ml.

[2] = cited from earlier work
[3] = design: method as in PMID 7288602; conditions: rats; single dose of 15 mg/kg; cited from earlier work
[4] = non-pregnant adult rats, 30 min after ip paracetamol 15 mg/kg + lamotrigine 6 mg/kg (PARA+LTG, n=3), median (IQR)

concentration at 30 min ([1]; both, brain cortex, intraperitoneal, Concentration in brain, P4 rats, 30 min after ip paracetamol 15 mg/kg + valproate 30 mg/kg (PARA+VPA, n=4), median (IQR) or individual values): 5.3 µg/mL
concentration at 30 min ([1]; both, brain, CSF, 15 mg/kg, brain and CSF concentrations, monotherapy 15 mg/kg, 30 min, all ages (E19, P4, adult)): 5 to 10 µg/mL
concentration at 30 min ([1]; both, plasma, intraperitoneal, 15 mg/kg, Concentration in plasma, P4 rats, 30 min after ip paracetamol 15 mg/kg monotherapy (PARA, n=4), median (IQR)): 5.6 µg/mL
concentration at 30 min ([1]; both, plasma, intraperitoneal, Concentration in plasma, P4 rats, 30 min after ip paracetamol 15 mg/kg + cimetidine 11 mg/kg (PARA+CIM, n=4), median (IQR)): 10.6 µg/mL
concentration at 30 min ([1]; both, plasma, intraperitoneal, Concentration in plasma, P4 rats, 30 min after ip paracetamol 15 mg/kg + digoxin 0.03 mg/kg (PARA+DIG, n=4), median (IQR)): 8.2 µg/mL
concentration at 30 min ([1]; both, plasma, intraperitoneal, Concentration in plasma, P4 rats, 30 min after ip paracetamol 15 mg/kg + fluvoxamine 1.5 mg/kg (PARA+FLX, n=4), median (IQR)): 6.5 µg/mL
concentration at 30 min ([1]; both, plasma, intraperitoneal, Concentration in plasma, P4 rats, 30 min after ip paracetamol 15 mg/kg + lamotrigine 6 mg/kg (PARA+LTG, n=5), median (IQR)): 7.2 µg/mL
concentration at 30 min ([1]; both, plasma, intraperitoneal, Concentration in plasma, P4 rats, 30 min after ip paracetamol 15 mg/kg + lithium 3.2 mg/kg (PARA+Li, n=4), median (IQR)): 4.3 µg/mL
concentration at 30 min ([1]; both, plasma, intraperitoneal, Concentration in plasma, P4 rats, 30 min after ip paracetamol 15 mg/kg + olanzapine 0.15 mg/kg (PARA+OLZ, n=4), median (IQR)): 5.6 µg/mL
concentration at 30 min ([1]; both, plasma, intraperitoneal, Concentration in plasma, P4 rats, 30 min after ip paracetamol 15 mg/kg + valproate 30 mg/kg (PARA+VPA, n=4), median (IQR) or individual values): 6.7 µg/mL
concentration at 30 min ([1]; both, plasma, intraperitoneal, concentration in plasma, P4, monotherapy and combination therapy with any of the drugs investigated): ~5 µg/mL
concentration at 30 min ([1]; female, CSF, intraperitoneal, 15 mg/kg, Concentration in CSF, non-pregnant adult rats, 30 min after ip paracetamol 15 mg/kg monotherapy (PARA, n=6), median (IQR)): 5.3 µg/mL
concentration at 30 min ([1]; female, CSF, intraperitoneal, Concentration in CSF, non-pregnant adult rats, 30 min after ip paracetamol 15 mg/kg + cimetidine 11 mg/kg (PARA+CIM, n=3), median (IQR)): 2.1 µg/mL
concentration at 30 min ([1]; female, CSF, intraperitoneal, Concentration in CSF, non-pregnant adult rats, 30 min after ip paracetamol 15 mg/kg + digoxin 0.03 mg/kg (PARA+DIG, n=3), median (IQR)): 4.2 µg/mL
concentration at 30 min ([1]; female, CSF, intraperitoneal, Concentration in CSF, non-pregnant adult rats, 30 min after ip paracetamol 15 mg/kg + fluvoxamine 1.5 mg/kg (PARA+FLX, n=4), median (IQR)): 4.4 µg/mL
concentration at 30 min ([1]; female, CSF, intraperitoneal, Concentration in CSF, non-pregnant adult rats, 30 min after ip paracetamol 15 mg/kg + olanzapine 0.15 mg/kg (PARA+OLZ, n=4), median (IQR)): 4.2 µg/mL
concentration at 30 min ([1]; female, CSF, intraperitoneal, Concentration in CSF, non-pregnant adult rats, 30 min after ip paracetamol 15 mg/kg + valproate 30 mg/kg (PARA+VPA, n=3), median (IQR)): 4.7 µg/mL
concentration at 30 min ([1]; female, brain, intraperitoneal, 15 mg/kg, Concentration in brain, non-pregnant adult rats, 30 min after ip paracetamol 15 mg/kg monotherapy (PARA, n=6), median (IQR)): 8.1 µg/mL
concentration at 30 min ([1]; female, brain, intraperitoneal, Concentration in brain, non-pregnant adult rats, 30 min after ip paracetamol 15 mg/kg + cimetidine 11 mg/kg (PARA+CIM, n=3), median (IQR)): 2.9 µg/mL
concentration at 30 min ([1]; female, brain, intraperitoneal, Concentration in brain, non-pregnant adult rats, 30 min after ip paracetamol 15 mg/kg + olanzapine 0.15 mg/kg (PARA+OLZ, n=4), median (IQR)): 3.9 µg/mL
concentration at 30 min ([1]; female, brain, intraperitoneal, Concentration in brain, non-pregnant adult rats, 30 min after ip paracetamol 15 mg/kg + valproate 30 mg/kg (PARA+VPA, n=3), median (IQR)): 7.5 µg/mL
concentration at 30 min ([1]; female, plasma, intraperitoneal, 15 mg/kg, Concentration in plasma, non-pregnant adult rats, 30 min after ip paracetamol 15 mg/kg monotherapy (PARA, n=6), median (IQR)): 8.4 µg/mL
concentration at 30 min ([1]; female, plasma, intraperitoneal, Concentration in plasma, non-pregnant adult rats, 30 min after ip paracetamol 15 mg/kg + digoxin 0.03 mg/kg (PARA+DIG, n=3), median (IQR)): 4.4 µg/mL
concentration at 30 min ([1]; female, plasma, intraperitoneal, Concentration in plasma, non-pregnant adult rats, 30 min after ip paracetamol 15 mg/kg + fluvoxamine 1.5 mg/kg (PARA+FLX, n=4), median (IQR)): 4.6 µg/mL
concentration at 30 min ([1]; female, plasma, intraperitoneal, Concentration in plasma, non-pregnant adult rats, 30 min after ip paracetamol 15 mg/kg + olanzapine 0.15 mg/kg (PARA+OLZ, n=4), median (IQR)): 6.7 µg/mL
Concentration in plasma ([1]; non-pregnant adult rats, 30 min after ip paracetamol 15 mg/kg + cimetidine 11 mg/kg (PARA+CIM, n=3), median (IQR)): 3.4 (1.0) µg/ml
Concentration in brain ([1]; non-pregnant adult rats, 30 min after ip paracetamol 15 mg/kg + digoxin 0.03 mg/kg (PARA+DIG, n=3), median (IQR)): 4.3 (1.6) µg/ml
Concentration in brain [1, 4]: 7.1 (0.7) µg/ml
Concentration in plasma [1, 4]: 7.5 (1.0) µg/ml
Concentration in plasma ([1]; non-pregnant adult rats, 30 min after ip paracetamol 15 mg/kg + valproate 30 mg/kg (PARA+VPA, n=3), median (IQR)): 7.5 (1.3) µg/ml
SMILES: CC(=O)Nc1ccc(O)cc1 [Paracetamol, reference compound]
fraction metabolized by glucuronidation via UGT enzymes ([2]; adult humans, liver): 55–60%
fraction metabolized by sulfation via SULT enzymes ([2]; adult humans, liver): 20–30%
fraction excreted unchanged in urine ([2]; adult humans): around 4%
fraction turned into NAPQI via cytochrome P450 enzymes ([2]; adult humans): Up to 10%
proportion of paracetamol's metabolism by the glutathione metabolic pathway [2]: < 10%
half-life [3]: around 16 min
